Reference: patent publication US10815254B2, “Biflavone-zinc complex, preparation method and application thereof” (NANJING FORESTRY UNIVERSITY, priority 2017, dated 2020)

What was measured:
[1] = system: herring sperm DNA (fDNA); assay: Interaction with fDNA by UV-vis spectroscopy, fluorescence spectroscopy and viscosity method; format: binding; conditions: UV-vis, fluorescence (fDNA-EB system), viscosity
From the text: UV-vis spectroscopy, fluorescence spectroscopy and viscosity method are used to study the interaction between the Ame/Ame-Zn complex and herring sperm DNA (fDNA) to further reveal the mechanism of antitumor activity, the obtained spectra are shown in FIGS. 7-11. […] Thereby, it can be speculated that the mechanism of antitumor activity of the Ame and its complex may be that Ame or the complex thereof enters the interior of the cell and intercalates with the DNA strand to cause apoptosis. Since the interaction of the complex with DNA is stronger than of the Ame, the antitumor activity thereof is also stronger than of the Ame.

[2] = Pyrogallol auto-oxidation method, O2-. free radical scavenging; conditions: Tris-HCl pH 8.20, 25° C., 322 nm, read-out: IC50 to scavenge O2^−. free radical
Protocol: The free radical scavenging effects of the Ame and the Ame-Zn complex were studied by pyrogallol auto-oxidation method and ABTS method with the following steps:
(1) Pyrogallol Auto-Oxidation Method
Determination of auto-oxidation rate V0 of pyrogallol: 2 mL Tris-HCl buffer (pH=8.20) was added to a 10 mL sample tube at 25° C., 100 μL DMSO was added as a control, after adding 0.8 mL distilled water, 0.2 mL pyrogallol solution having a concentration of 2 mmol·L^−1 was added, the mixture was poured into a cuvette after mixing uniformly, the absorbance at 322 nm was measured with pure water as a blank, the A value was recorded every 10 s for a total of 4 min, linear regression was performed with t as the abscissa, and A as the ordinate, straight line slope thereof is V0, and the measurement was performed for three times to obtain an average value. […]

[3] = ABTS method, ABTS+. free radical scavenging; conditions: 25° C., 5 min, 730 nm, from linear equation of scavenging rate vs concentration; read-out: IC50 for scavenging ABTS^+. free radicals
Protocol: Determination of […]. free radical ion scavenging capacity of the blank sample: at 25° C., 2.9 mL ABTS^+. free radical ion working solution was added into a 10 mL sample tube, 100 μL DMSO was added, after reacting for 5 min, the UV-vis spectrum was measured, and the absorption intensity A0 at 730 nm was recorded.
Determination of ABTS^+. free radical ion scavenging capacity of the samples: at 25° C., 2.9 mL ABTS^+. free radical ion working solution was added into a 10 mL sample tube, 100 μL samples of different concentrations that were dissolved in DMSO were added, after reacting for 5 min, the UV-vis spectrum was measured, and the absorption intensity A1 at 730 nm was recorded, and the ABTS^+. free radical ion scavenging rate was calculated according to Formula 4.
The ABTS^+. free radical scavenging capacities of the Ame and the Ame-Zn complex are concentration dependent. Within a certain range, the scavenging rate is linear with the concentration. The curve of the scavenging rate and the concentration (c) is plotted in the present invention to obtain a corresponding linear equation, and the maximum half-inhibitory concentration (IC50 value) is calculated.

SMILES: O=c1cc(-c2ccc(O)c(-c3c(O)cc(O)c4c(=O)cc(-c5ccc(O)cc5)oc34)c2)oc2cc(O)cc(O)c12 [Ame, amentoflavone]
- manner of interaction with fDNA [1]: intercalation manner
- IC50 [2]: 23.3 µM
- IC50 [3]: 20.7 µM
